# Bridge positions count the residues as written; N and C are the ends. Square brackets hold non-standard residues; d marks the D form. Peptide text beside a SMILES is read from it. Orn(iPr) = CC(C)NCCC[C@H](N)C(=O)O; Aad = N[C@@H](CCCC(=O)O)C(=O)O
# Experiments:
# [1] = system: patients with septic shock; conditions: cited from earlier work
# [2] = system: patients with vasopressor-dependent sepsis and septic shock; assay: randomized, placebo-controlled, adaptive clinical study of selepressin plus standard care; assay type: in vivo, human; design: Estimated 30-day mortality (up to day 30) / Estimated 30-day mortality, treatment difference vs placebo: concentration or dose not given beside the values; conditions: for improvement in estimated VFDs compared with placebo (more): up to day 30; for Est P&VFDs: all patients / Estimated Pressor and Ventilator Free days (P&VFDs): all patients: all doses pooled; for Est % mortality, treatment difference vs placebo / Est P&VFDs: all patients, treatment difference vs placebo / Est P&VFDs: survivors, treatment difference vs placebo / Estimated P&VFDs: all patients, treatment difference vs placebo / Estimated 30-day mortality, treatment difference vs placebo / Estimated P&VFDs: survivors only, treatment difference vs placebo: selepressin minus placebo; for Estimated Pressor and Ventilator Free days (P&VFDs): all patients: up to Day 30
# Excerpt: The study described in the following examples was a randomized, placebo-controlled, seamless two-part, adaptive clinical study. […] The term “vasopressor-dependent sepsis” includes all patients with sepsis requiring vasopressor therapy. Septic shock includes patients with sepsis who require vasopressor therapy and who have a serum lactate concentration of ≥2 mmol/L.
# The inclusion and exclusion criteria for the trial are set out below.
# Inclusion Criteria • 18 years of age or older • Proven or suspected infection Septic shock defined as hypotension (systolic blood pressure less than 90 mm Hg or • Mean arterial pressure less than 65 mm Hg requiring vasopressor treatment (i.e., any dose of norepinephrine/noradrenaline base greater than […]) despite adequate fluid resuscitation (at least 1 litre for hypotension) • Informed consent obtained in accordance with local regulations
# Exclusion Criteria • Unable to initiate treatment with selepressin or placebo within 12 h of onset of vasopressor treatment for septic shock • Primary cause of hypotension not due to sepsis • Previous severe sepsis with intensive care admission within this hospital stay • Known/suspected acute mesenteric ischemia • Suspicion of concomitant acute coronary syndrome based on clinical symptoms and/or electrocardiogram findings during this episode of septic shock • Chronic mechanical ventilation for any reason or severe chronic obstructive pulmonary disease (COPD) requiring either continuous daily oxygen use during the preceding 30 days or mechanical ventilation (for acute exacerbation of COPD) during the preceding 30 days • Received bone marrow transplant during the preceding 6 months or chemotherapy during the preceding 30 days for lymphoma or leukemia • Known to be pregnant Decision to limit full care taken before obtaining informed consent • Use of vasopressin in the past 12 hours before start of selepressin or placebo or use of terlipressin within 7 days of start of selepressin or placebo • Prior enrollment in the study • Prior use of an investigational medicinal product within the last month or planned or concurrent participation in a clinical trial for any investigational drug or investigational device
# Additional Criteria that Must be Met at the Time of the Start of the Infusion of Selepressin or Placebo • Received a minimum of 30 ml/kg fluid in total from the onset of hypotension (not required if there is evidence of adequate fluid repletion or overload) • Received a continuous infusion of norepinephrine/noradrenaline base greater than […] for at least 1 h and is still receiving at least […] norepinephrine/noradrenaline base • Less than 12 h since onset of vasopressor treatment for septic shock
# The targeted study population is a typical sample of patients presenting with vasopressor-dependent sepsis, defined by failing to respond to intravenous fluid replacement and requiring vasopressors for at least 1 hour, in whom treatment with selepressin or placebo could be initiated within 12 hours of the initiation of vasopressors.
# The study drug was the continuous intravenous infusion of either the experimental agent or a matching placebo. In all instances, subjects received study infusion and standard care. The possible treatment arms were: Placebo; selepressin starting infusion rate 1.7 ng/kg/min to maximum 2.5 ng/kg/min; selepressin starting 2.5 ng/kg/min to maximum 3.75 ng/kg/min; selepressin starting 3.5 ng/kg/min to maximum 5.25 ng/kg/min; and selepressin starting 5.0 ng/kg/min to 7.5 ng/kg/min. […] This latter approach sought to wean all other vasoactive agents as soon as possible, and in a specified order, beginning with any open-label vasopressor other than norepinephrine, followed by norepinephrine, and finally the blinded study infusion. All patients received the study infusion until recovery from the need of vasopressor treatment or for 30 days, whichever came first. […]
# [3] = target: human vasopressin V1a receptor (Homo sapiens, UniProt P37288); conditions: relative to the V1b, V2, and oxytocin receptors; cited from earlier work
# human vasopressin V1a receptor, sequence (P37288 whole entry): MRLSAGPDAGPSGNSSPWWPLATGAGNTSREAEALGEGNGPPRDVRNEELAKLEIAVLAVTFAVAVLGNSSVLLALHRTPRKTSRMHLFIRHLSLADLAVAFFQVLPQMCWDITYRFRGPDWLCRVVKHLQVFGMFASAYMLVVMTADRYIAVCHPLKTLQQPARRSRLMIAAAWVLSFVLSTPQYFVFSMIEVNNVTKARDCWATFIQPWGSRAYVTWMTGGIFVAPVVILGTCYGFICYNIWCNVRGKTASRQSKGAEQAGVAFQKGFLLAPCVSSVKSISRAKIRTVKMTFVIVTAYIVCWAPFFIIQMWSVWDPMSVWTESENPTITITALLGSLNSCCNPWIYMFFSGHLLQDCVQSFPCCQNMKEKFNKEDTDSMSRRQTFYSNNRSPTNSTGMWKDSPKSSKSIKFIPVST
# [4] = system: other receptors, ion channels, or transporters; conditions: cited from earlier work
# [5] = baseline serum lactate <2 mmol/L, n = 184
# [6] = baseline serum lactate <2 mmol/L
# [7] = baseline serum lactate ≥2 mmol/L, n = 340
# [8] = baseline serum lactate ≥2 mmol/L
structure (smiles),measurement,setting,value
NC(=O)CC[C@@H]1NC(=O)[C@H](Cc2ccccc2)NC(=O)[C@H](Cc2ccc(O)cc2)NC(=O)[C@@H](N)CSSC[C@@H](C(=O)N2CCC[C@H]2C(=O)N[C@@H](CCCN=C(N)N)C(=O)NCC(N)=O)NC(=O)[C@H](CC(N)=O)NC1=O [vasopressin],overall mortality compared with norepinephrine,[1]; all patients,not different
same,mortality compared with norepinephrine,[1]; patients requiring 5-14 ug/min of norepinephrine at enrollment,decreased mortality
"CC[C@H](C)[C@@H]1NC(=O)[C@H](Cc2ccccc2)NC(=O)[C@@H](N)CSSC[C@@H](C(=O)N2CCC[C@H]2C(=O)N[C@@H](CCCNC(C)C)C(=O)NCC(N)=O)NC(=O)[C@H](CC(N)=O)NC(=O)[C@H](CCCC(N)=O)NC1=O [Selepressin, selepressin] (H-CFI[Aad](NH2)NCP[Orn(iPr)]G-NH2; disulfide 1-6)",mortality and patient outcomes (pressor and mechanical ventilator free days),[2]; PaO2/FiO2 greater than about 200 prior to treatment,improved mortality and improved patient outcomes
same,mortality and patient outcomes (P&VFDs),[2]; administered within six hours from when the patient requires vasopressor therapy,improved mortality and improved patient outcomes
same,improvement in estimated VFDs compared with placebo (more),"[2]; baseline PaO2/FiO2 200-300 mmHg, FIG. 1",2.1
same,outcomes (VFDs) compared with placebo,"[2]; baseline PaO2/FiO2 <100 mmHg, FIG. 1",slightly worse
same,improvement in estimated VFDs compared with placebo (more),"[2]; baseline PaO2/FiO2 ≥300 mmHg, FIG. 1",4.8
same,Est % mortality,[2]; [5],21.39%
same,Est P&VFDs: all patients,[2]; [5],17.53
same,"Est % mortality, treatment difference vs placebo",[2]; [6],−6.32%
same,"Est P&VFDs: all patients, treatment difference vs placebo",[2]; [6],2.34
same,Est P&VFDs: survivors,[2]; [6],22.30
same,"Est P&VFDs: survivors, treatment difference vs placebo",[2]; [6],1.29
same,Est % mortality,[2]; [7],40.04%
same,Est P&VFDs: all patients,[2]; [7],13.87
same,"Est % mortality, treatment difference vs placebo",[2]; [8],3.96%
same,"Est P&VFDs: all patients, treatment difference vs placebo",[2]; [8],−0.67
same,Est P&VFDs: survivors,[2]; [8],23.14
same,"Est P&VFDs: survivors, treatment difference vs placebo",[2]; [8],0.38
same,improvement in mortality compared with placebo (less),[2]; serum lactate <2 mmol/L at baseline,6.32%
same,mortality and patient outcomes (P&VFDs),[2]; serum lactate less than about 2 mmol/L prior to treatment,improved mortality and improved patient outcomes
same,Estimated Pressor and Ventilator Free days (P&VFDs): all patients,"[2]; treatment <6 hours from when patient required vasopressor, n = 147",14.56 days
same,"Estimated P&VFDs: all patients, treatment difference vs placebo",[2]; treatment <6 hours from when patient required vasopressor,2.08 days
same,Estimated 30-day mortality (up to day 30),"[2]; treatment <6 hours, n = 147",35.73%
same,"Estimated 30-day mortality, treatment difference vs placebo",[2]; treatment <6 hours,−6.57%
same,Estimated Pressor and Ventilated Free Days (P&VFDs): survivors only,[2]; treatment <6 hours,22.66 days
same,"Estimated P&VFDs: survivors only, treatment difference vs placebo",[2]; treatment <6 hours,1.02 days
same,improvement in mortality compared with placebo (less),[2]; treatment between zero and up to six hours from when patient required vasopressor,6.57%
same,Estimated 30-day mortality (up to day 30),"[2]; treatment ≥6 hours, n = 415",33.79%
same,Estimated Pressor and Ventilator Free days (P&VFDs): all patients,"[2]; treatment ≥6 hours, n = 415",15.59 days
same,"Estimated 30-day mortality, treatment difference vs placebo",[2]; treatment ≥6 hours,2.91%
same,"Estimated P&VFDs: all patients, treatment difference vs placebo",[2]; treatment ≥6 hours,-0.05 days
same,Estimated Pressor and Ventilated Free Days (P&VFDs): survivors only,[2]; treatment ≥6 hours,23.55 days
same,"Estimated P&VFDs: survivors only, treatment difference vs placebo",[2]; treatment ≥6 hours,0.92 days
same,affinity and selectivity for V1a receptor,[3],high affinity and selectivity
same,"affinity for other receptors, ion channels, or transporters",[4],no known affinity

# Source: patent publication US20220008499A1, “COMPOUNDS, COMPOSITIONS AND METHODS FOR TREATING SEPSIS” (FERRING B.V., priority 2018, published 2022)
